In patent US20210221832A1, “SUBSTITUTED PYRIDOINDOLES FOR THE TREATMENT AND PROPHYLAXIS OF BACTERIAL INFECTION” (Hoffmann-La Roche Inc., priority 2018, published 2021):
In brackets after ≈: the same amount, converted by molar mass.

Columns and labels:
[1] = Plasma stability assay in mouse plasma; assay type: in vitro ADME, CD-1 mouse; details: 10 μM prodrug, 37° C., prodrug remaining at 30 min compared to 0 min
Description: (§1) The degradation of prodrug and formation of active drug of present invention were monitored by current plasma stability assay. The assay is conducted in human plasma (purchased from Bioreclamation, Lot No. BRH1380385) or mouse plasma (prepared in-house using CD-1 mouse purchased from Vital River). Plasma is spiked with the test prodrug (10 μM final concentration) dissolved in DMSO (or water) and incubated at 37° C. Aliquots are removed at 0, 5, 15 and 30 minutes of incubation time, quenched with appropriate volume of internal standard solution (I.S., 0.2 μM of tolbutamide, prepared in ACN and water (1:1, v/v)), according to the mass spectrometer intensity of both analytes. Samples are centrifuged, the supernatant are removed and analyzed by LC-MS/MS. The degradation of prodrug was illustrated by calculation of percent remaining of prodrug at 30 min compared to that at 0 min (Table 2).

[2] = Lyophilisation Solubility Assay (LYSA); assay type: physicochemical; details: aqueous buffer, thermodynamic from solid; 0.05 M phosphate buffer, pH 6.5
Description: The solubility of compounds of present invention was assessed by LYSA assay. Samples were prepared in duplicate from 10 mM DMSO stock solutions (20 μL) diluted in 30 μL pure DMSO. After evaporation of DMSO with a centrifugal vacuum evaporator, the residue was dissolved in 0.05 M phosphate buffer (150 μL, pH 6.5), which was stirred for one hour and shook for two hours. After one night, the solution was filtered using a microtiter filter plate. Then the filtrate and its 1/10 dilution were analyzed by HPLC-UV. In addition, a four-point calibration curve was prepared from the 10 mM stock solutions and used for the solubility determination of the compounds.

[3] = Plasma stability assay in human plasma; assay type: in vitro ADME; details: 10 μM prodrug, 37° C., prodrug remaining at 30 min compared to 0 min
Description: as §1

[4] = system: S. aureus (ATCC29213); experiment: 50% Growth Inhibitory Concentration (IC50) Determination Assay, S. aureus; assay type: cell-based; details: Staphylococcus aureus, growth inhibition, Iso-Sensitest broth, OD 600 nm over 16 h
Description: (§2) The in vitro antimicrobial activity of the compounds against S. aureus (ATCC29213), K. pneumoniae (ATCC10031), and A. baumannii (ATCC17978), was determined according to the following procedure: The assay used a 10-points Iso-Sensitest broth medium to measure quantitatively the in vitro activity of the compounds against S. aureus ATCC29213, K. pneumoniae ATCC 10031, and A. baumannii ATCC 17978. Stock compounds in DMSO were serially two-fold diluted (range from 50 to 0.097 μM final concentration) in 384 wells microtiter plates and inoculated with 49 μL the bacterial suspension in Iso-Sensitest broth medium to have a final cell concentration of 5×10^5 CFU/mL in a final volume/well of 50 μL/well. Microtiter plates were incubated at 35±2° C. Bacterial cell growth was determined with the measurement of optical density at λ=600 nm each 20 minutes over a time course of 16 h. Growth inhibition was calculated during the logarithmic growth of the bacterial cells with determination of the concentration inhibiting 50% (IC50) of the growth. The parent compounds of the present invention were tested for their concentration inhibiting 50% (IC50). The data of IC50 over S. aureus (ATCC29213), K. pneumoniae (ATCC10031), and A. baumannii (ATCC17978) are illustrated in Table 6.

[5] = system: A. baumannii (ATCC17978); experiment: 50% Growth Inhibitory Concentration (IC50) Determination Assay, A. baumannii; assay type: cell-based; details: Acinetobacter baumannii, growth inhibition, Iso-Sensitest broth, OD 600 nm over 16 h
Description: as §2

[6] = system: K. pneumoniae (ATCC10031); experiment: 50% Growth Inhibitory Concentration (IC50) Determination Assay, K. pneumoniae; assay type: cell-based; details: Klebsiella pneumoniae, growth inhibition, Iso-Sensitest broth, OD 600 nm over 16 h
Description: as §2

| Percent Remaining (%) M [1] [%] | solubility [2] [µg/mL] | Percent Remaining (%) H [3] [%] | IC50 [4] [nM] | IC50 [5] [nM] | IC50 [6] [nM] | Structure (SMILES) |
| --- | --- | --- | --- | --- | --- | --- |
| 79.1 | > 950 | 95.9 | – | – | – | CNc1cc(F)c(C#N)c2c3c(N4CC[C@H]5CN(C)C[C@H]54)c(-c4cnc5c(c4)c(=O)c(C(=O)O)cn5C)cn(COP(=O)(O)O)c-3nc12 [Example 1.04, 6-[5-Cyano-6-fluoro-8-(methylamino)-1-(phosphonooxymethyl)-4-[(3aS,6aS)-5-methyl-2,3,3a,4,6,6a-hexahydropyrrolo[2,3-c]pyrrol-1-yl]pyrido[2,3-b]indol-3-yl]-1-methyl-4-oxo-1,8-naphthyridine-3-carboxylic acid] |
| – | 54 (≈ 99.2 µM) | – | < 98 | < 98 | < 98 | CNc1cc(F)c(F)c2c1[nH]c1ncc(-c3ccc4ccc(C(=O)O)c(=O)n4c3)c(N3CC[C@H]4CN(C)C[C@H]43)c12 [Example 1.34D, 7-[5,6-difluoro-8-(methylamino)-4-[(3aS,6aS)-5-methyl-2,3,3a,4,6,6a-hexahydropyrrolo[2,3-c]pyrrol-1-yl]-9H-pyrido[2,3-b]indol-3-yl]-4-oxo-quinolizine-3-carboxylic acid] |
| – | 194 (≈ 342 µM) | – | < 98 | 45 | < 98 | CNc1cc(F)c(C#N)c2c1[nH]c1ncc(-c3cnc4c(c3)c(=O)c(C(=O)O)cn4C)c(N3CC[C@H]4CN(C)C[C@H]43)c12 [Example 1.03D, 6-[5-cyano-6-fluoro-8-(methylamino)-4-[(3aS,6aS)-5-methyl-2,3,3a,4,6,6a-hexahydropyrrolo[2,3-c]pyrrol-1-yl]-9H-pyrido[2,3-b]indol-3-yl]-1-methyl-4-oxo-1,8-naphthyridine-3-carboxylic acid] |
| 70.2 | > 895 | 88.2 | – | – | – | CN1C[C@@H]2CCN(c3c(-c4cnc5c(c4)c(=O)c(C(=O)O)cn5C)cnc4[nH]c5c(N(C)C(=O)OCOC(=O)/C=C/C(=O)O)cc(F)c(C#N)c5c34)[C@@H]2C1 [Example 1.02, 6-[5-Cyano-6-fluoro-8-[methyl-[[(E)-3-carboxyprop-2-enoyl]oxymethoxycarbonyl]amino]-4-[(3aS,6aS)-5-methyl-2,3,3a,4,6,6a-hexahydropyrrolo[2,3-c]pyrrol-1-yl]-9H-pyrido[2,3-b]indol-3-yl]-1-methyl-4-oxo-1,8-naphthyridine-3-carboxylic acid] |
| – | 137 (≈ 245 µM) | – | < 98 | 39 | < 98 | CNc1cc(F)c(F)c2c1[nH]c1ncc(-c3cnc4c(c3)c(=O)c(C(=O)O)cn4C)c(N3CC[C@H]4CN(C)C[C@H]43)c12 [Example 1.26E, 6-[5,6-difluoro-8-(methylamino)-4-[(3aS,6aS)-5-methyl-2,3,3a,4,6,6a-hexahydropyrrolo[2,3-c]pyrrol-1-yl]-9H-pyrido[2,3-b]indol-3-yl]-1-methyl-4-oxo-1,8-naphthyridine-3-carboxylic acid] |
| 0.6 | – | 1.9 | – | – | – | CNc1cc(F)c(C#N)c2c1[nH]c1ncc(-c3cnc4c(c3)c(=O)c(C(=O)OCc3oc(=O)oc3C)cn4C)c(N3CC[C@H]4CN(C)C[C@H]43)c12 [Example 1.13, (5-Methyl-2-oxo-1,3-dioxol-4-yl)methyl 6-[5-cyano-6-fluoro-8-(methylamino)-4-[(3aS,6aS)-5-methyl-2,3,3a,4,6,6a-hexahydropyrrolo[2,3-c]pyrrol-1-yl]-9H-pyrido[2,3-b]indol-3-yl]-1-methyl-4-oxo-1,8-naphthyridine-3-carboxylate] |
| 1.3 | 480 (≈ 676 µM) | 22.3 | – | – | – | CNc1cc(F)c(C#N)c2c1[nH]c1ncc(-c3cnc4c(c3)c(=O)c(C(=O)OCCOC(=O)[C@@H](N)C(C)C)cn4C)c(N3CC[C@H]4CN(C)C[C@H]43)c12 [Example 1.08, 2-[(2S)-2-Amino-3-methyl-butanoyl]oxyethyl 6-[5-cyano-6-fluoro-8-(methylamino)-4-[(3aS,6aS)-5-methyl-2,3,3a,4,6,6a-hexahydropyrrolo[2,3-c]pyrrol-1-yl]-9H-pyrido[2,3-b]indol-3-yl]-1-methyl-4-oxo-1,8-naphthyridine-3-carboxylate] |

| Structure (SMILES) | Percent Remaining (%) M [1] [%] | solubility [2] [µg/mL] | Percent Remaining (%) H [3] [%] | IC50 [4] [nM] | IC50 [5] [nM] | IC50 [6] [nM] |
| --- | --- | --- | --- | --- | --- | --- |
| CC(=O)OC(C)OC(=O)N(C)c1cc(F)c(C#N)c2c1[nH]c1ncc(-c3cnc4c(c3)c(=O)c(C(=O)O)cn4C)c(N3CC[C@H]4CN(C)C[C@H]43)c12 (stereo partly drawn) [Example 1.15, 6-[8-[1-Acetoxyethoxycarbonyl(methyl)amino]-5-cyano-6-fluoro-4-[(3aS,6aS)-5-methyl-2,3,3a,4,6,6a-hexahydropyrrolo[2,3-c]pyrrol-1-yl]-9H-pyrido[2,3-b]indol-3-yl]-1-methyl-4-oxo-1,8-naphthyridine-3-carboxylic acid] | 4.7 | – | 50.5 | – | – | – |
